Laboratory results published in patent US11214803B2, “Modulators of YAP1 expression” (Ionis Pharmaceuticals, Inc., priority 2019, dated 2022).
Strand notation (5' to 3'): a small letter for the sugar, then the base; units joined by * are phosphorothioate-linked, units joined directly phosphodiester-linked; [ ] holds rarer units or linkages, { } end groups; capitals alone tell only the bases. k = constrained ethyl (cEt); [5mC] = 5-methylcytosine; d = 2'-deoxy (DNA)

System: Yap1 mRNA
Test: Antisense inhibition of human Yap1 in A-431 cells by cEt gapmers, single dose (Example 3, RTS36584)
Format: cell-based
Summary of the method: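 Single-dose free-uptake screen of 3-10-3 cEt gapmers in A-431 cells at 2,000 nM over about 48 h. Values are % untreated control Yap1 mRNA.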

[1] = Table 11, A-431 cells, 5,000 cells per well, free uptake, 2,000 nM oligonucleotide, approx. 48 hours, primer probe set RTS36584, Yap1 mRNA normalized to RIBOGREEN, percent of untreated control
[2] = Table 28, Yap1 mRNA as percent of untreated control, 3-10-3 cEt gapmers targeting SEQ ID NO.: 1, and 2
[3] = Table 12, A-431 cells, 5,000 cells per well, free uptake, 2,000 nM modified oligonucleotide, approx. 48 hours, RTS36584, normalized to RIBOGREEN, Yap1 mRNA relative to untreated control cells
[4] = Table 10, A-431 cells, 5,000 cells per well, free uptake, 2,000 nM oligonucleotide, approx. 48 hours, primer probe set RTS36584, Yap1 mRNA normalized to RIBOGREEN, percent of untreated control
[5] = Table 27, Yap1 mRNA by 3-10-3 cEt gapmers targeting SEQ ID NO.: 1, and 2, percent of untreated control
[6] = Table 9, A-431 cells, 5,000 cells per well, free uptake, 2,000 nM, approximately 48 hours, RTS36584, normalized to RIBOGREEN, Yap1 mRNA relative to untreated control cells
[7] = Table 8, A-431 cells, 5,000 cells per well, free uptake, 2,000 nM, approximately 48 hours, RTS36584, normalized to RIBOGREEN, Yap1 mRNA relative to untreated control cells
[8] = Table 26, Yap1 mRNA by 3-10-3 cEt gapmers targeting SEQ ID NO.: 1, and 2, percent of untreated control
[9] = Table 34, Yap1 mRNA as percent of untreated control, 3-10-3 cEt gapmers targeting SEQ ID NO: 1 and 2, single dose
[10] = Table 29, Yap1 mRNA as percent of untreated control, 3-10-3 cEt gapmers targeting SEQ ID NO.: 1, and 2
[11] = Table 13, A-431 cells, 5,000 cells per well, free uptake, 2,000 nM modified oligonucleotide, approx. 48 hours, RTS36584, normalized to RIBOGREEN, Yap1 mRNA relative to untreated control cells
[12] = Table 35, Yap1 mRNA as percent of untreated control, 3-10-3 cEt gapmers targeting SEQ ID NO: 1 and 2, single dose

## 958708 (antisense kA*kT*kG*dT*d[5mC]*dA*dG*dA*dT*dG*dT*d[5mC]*dA*kA*kT*kT) [Compound 958708]
[1]
  YAP1 (% UTC): 19 % UTC

## 1075438 (antisense k[5mC]*kA*kT*dA*dT*dT*dA*dG*dA*dG*dT*dT*dG*kA*kG*kG) [compound 1075438]
[2]
  YAP1 (% UTC): 22 % UTC

## 958549 (kT*kG*kT*dA*dG*dA*d[5mC]*dA*d[5mC]*dA*dT*dA*d[5mC]*kT*k[5mC]*kT; antisense) [Compound 958549]
[3]
  YAP1 (% UTC): 8 % UTC

## 958527 (kG*kT*kA*dA*dG*dT*dA*dA*dG*dA*dA*d[5mC]*dA*kA*kT*k[5mC]; antisense) [Compound 958527]
[4]
  YAP1 (% UTC): 4 % UTC

## 958469 (antisense kG*kG*k[5mC]*dT*d[5mC]*dT*dA*dT*dA*dA*d[5mC]*d[5mC]*dA*kT*kG*kT) [Compound 958469]
[3]
  YAP1 (% UTC): 17 % UTC

## 1074829 (kG*kG*kA*dT*dA*dA*dA*dA*dT*d[5mC]*d[5mC]*dA*d[5mC]*k[5mC]*kT*kG; antisense) [compound 1074829]
[5]
  YAP1 (% UTC): 92 % UTC

## 958482 (antisense kT*k[5mC]*kT*dG*dT*dA*dT*dT*dA*dG*d[5mC]*d[5mC]*dT*kG*kA*kA) [Compound 958482]
[4]
  YAP1 (% UTC): 10 % UTC

## 958712 (antisense kT*kT*kA*dT*dA*dT*dA*dG*dG*dT*dT*dA*d[5mC]*kA*kG*kA) [Compound 958712]
[4]
  YAP1 (% UTC): 52 % UTC

## 1075662 (antisense kA*kA*kG*dG*dG*dA*dT*dA*d[5mC]*dA*dA*dG*dT*kG*kT*kT) [compound 1075662]
[2]
  YAP1 (% UTC): 78 % UTC

## 958711 (antisense k[5mC]*k[5mC]*kA*dA*dA*dT*dA*dA*dG*dG*dA*dT*d[5mC]*kT*kG*kT) [Compound 958711]
[6]
  YAP1 (% UTC): 34 % UTC

## 958671 (k[5mC]*kA*kT*dT*dA*dT*dA*dT*dG*dG*d[5mC]*dA*d[5mC]*k[5mC]*k[5mC]*kA; antisense) [Compound 958671]
[6]
  YAP1 (% UTC): 19 % UTC

## 958591 (kT*k[5mC]*kA*d[5mC]*dA*dG*dT*dA*d[5mC]*dT*dG*d[5mC]*dT*kA*k[5mC]*kA; antisense) [Compound 958591]
[6]
  YAP1 (% UTC): 38 % UTC

## 958355 (antisense k[5mC]*kG*kT*dT*dG*dG*d[5mC]*d[5mC]*dG*dT*d[5mC]*dT*dT*kG*kG*kG) [Compound 958355]
[7]
  YAP1 (% UTC): 51 % UTC

## 1076012 (kA*kA*kT*dA*dT*dA*dA*dA*d[5mC]*dA*dA*dT*dA*kG*k[5mC]*kG; antisense) [compound 1076012]
[8]
  YAP1 (% UTC): 34 % UTC

## 958742 (antisense kA*kG*k[5mC]*dA*dA*dT*dA*dT*dG*dG*dT*dA*dT*kT*kA*kG) [Compound 958742]
[4]
  YAP1 (% UTC): 4 % UTC

## 958563 (kA*kG*k[5mC]*dT*dT*dT*dT*dG*d[5mC]*d[5mC]*dA*dG*dG*kA*kG*kA; antisense) [Compound 958563]
[1]
  YAP1 (% UTC): 3 % UTC

## 1076076 (kT*kA*kT*d[5mC]*dA*dA*dT*dA*d[5mC]*dT*dT*dT*dA*kG*kT*k[5mC]; antisense) [compound 1076076]
[8]
  YAP1 (% UTC): 57 % UTC

## 958457 (antisense kG*kT*k[5mC]*dG*dA*dA*dG*dA*dT*dG*d[5mC]*dT*dG*kA*kG*k[5mC]) [Compound 958457]
[4]
  YAP1 (% UTC): 5 % UTC

## 958686 (antisense k[5mC]*kG*k[5mC]*dA*dA*dT*dA*dT*dA*dG*dT*d[5mC]*dT*kA*kT*kA) [Compound 958686]
[6]
  YAP1 (% UTC): 4 % UTC

## 1075277 (antisense kT*kT*kA*dT*dA*dA*dG*dA*dA*d[5mC]*dT*dG*dT*kG*kG*k[5mC]) [compound 1075277]
[5]
  YAP1 (% UTC): 13 % UTC

## 1074708 (antisense k[5mC]*kT*kT*dT*dA*dA*dT*dG*dG*d[5mC]*dA*dG*d[5mC]*kA*k[5mC]*kG) [compound 1074708]
[9]
  YAP1 (% UTC): 55 % UTC

## 1074511 (kG*kA*kT*dA*d[5mC]*dA*dT*dT*d[5mC]*d[5mC]*dA*d[5mC]*dT*kA*k[5mC]*k[5mC]; antisense) [compound 1074511]
[10]
  YAP1 (% UTC): 9 % UTC

## 958520 (k[5mC]*kT*kA*d[5mC]*d[5mC]*dG*dT*dA*dT*dG*d[5mC]*d[5mC]*d[5mC]*kA*kG*kA; antisense) [Compound 958520]
[11]
  YAP1 (% UTC): 27 % UTC

## 1075086 (antisense kA*kG*kT*dT*dA*dT*dA*dG*dA*d[5mC]*dT*dT*dT*kG*kT*kA) [compound 1075086]
[2]
  YAP1 (% UTC): 25 % UTC

## 1075534 (kA*k[5mC]*k[5mC]*d[5mC]*dA*dA*dG*dG*dA*d[5mC]*dA*dG*d[5mC]*kA*k[5mC]*kA; antisense) [compound 1075534]
[2]
  YAP1 (% UTC): 53 % UTC

## 958442 (antisense kG*kG*kA*dG*dA*dA*dG*d[5mC]*dG*dG*d[5mC]*dG*dA*k[5mC]*kG*kG) [Compound 958442]
[4]
  YAP1 (% UTC): 21 % UTC

## 1074701 (antisense kG*kT*kG*dT*dA*dA*dG*dA*d[5mC]*dA*dA*dG*dT*k[5mC]*kT*kT) [compound 1074701]
[5]
  YAP1 (% UTC): 17 % UTC

## 958405 (antisense kT*kT*kA*dT*dG*dG*dG*dA*dT*dG*dA*dG*dT*kG*k[5mC]*kT) [Compound 958405]
[7]
  YAP1 (% UTC): 24 % UTC

## 1074517 (kA*kA*kT*dG*d[5mC]*dA*dT*dA*d[5mC]*dA*dA*dA*dG*k[5mC]*kG*k[5mC]; antisense) [compound 1074517]
[12]
  YAP1 (% UTC): 55 % UTC

## 1075477 (k[5mC]*kT*kT*dT*dA*dT*d[5mC]*dT*d[5mC]*dA*d[5mC]*dT*dA*kG*k[5mC]*kT; antisense) [compound 1075477]
[12]
  YAP1 (% UTC): 86 % UTC

## 1075439 (antisense kA*kA*kT*dT*dA*dG*dA*dG*dA*dT*dA*dT*dG*kG*kA*k[5mC]) [compound 1075439]
[10]
  YAP1 (% UTC): 77 % UTC

## 1076245 (k[5mC]*k[5mC]*kT*dA*dA*dA*dA*dA*dA*d[5mC]*dT*dA*dG*kT*kG*kA; antisense) [compound 1076245]
[12]
  YAP1 (% UTC): 101 % UTC

## 958719 (antisense kG*kT*kA*d[5mC]*dA*dT*dA*dA*dT*dG*dG*dG*d[5mC]*kT*kA*kA) [Compound 958719]
[3]
  YAP1 (% UTC): 49 % UTC

## 958715 (antisense kG*kT*kA*dA*dT*dA*dG*dG*dA*dG*dG*dT*dA*kA*kG*kA) [Compound 958715]
[11]
  YAP1 (% UTC): 48 % UTC

## 1076277 (kG*k[5mC]*kT*dA*dA*dA*dA*d[5mC]*dA*dT*d[5mC]*dA*dG*kA*kT*kA; antisense) [compound 1076277]
[12]
  YAP1 (% UTC): 24 % UTC

## 1076436 (k[5mC]*kA*kT*dT*dA*d[5mC]*dT*dA*d[5mC]*dT*d[5mC]*dT*dG*kT*k[5mC]*k[5mC]; antisense) [compound 1076436]
[9]
  YAP1 (% UTC): 39 % UTC

## 958415 (antisense k[5mC]*kT*kG*dT*dG*dT*dA*dG*dG*d[5mC]*dT*dG*dA*k[5mC]*kT*kT) [Compound 958415]
[7]
  YAP1 (% UTC): 16 % UTC

## 1074669 (antisense kA*kT*k[5mC]*d[5mC]*d[5mC]*dA*dA*d[5mC]*dA*dA*d[5mC]*dA*dT*kG*k[5mC]*kT) [compound 1074669]
[5]
  YAP1 (% UTC): 13 % UTC

## 1075988 (kA*kA*kT*dT*dA*dA*dG*d[5mC]*dT*dT*d[5mC]*dT*d[5mC]*kT*kA*kG; antisense) [compound 1075988]
[9]
  YAP1 (% UTC): 90 % UTC

## 1075183 (kA*kT*kT*dA*d[5mC]*dT*dA*dA*dG*dA*d[5mC]*dA*dG*kT*kG*kG; antisense) [compound 1075183]
[10]
  YAP1 (% UTC): 15 % UTC

## 1075860 (antisense kA*kA*k[5mC]*dT*dA*dT*dA*dA*dG*d[5mC]*dT*dA*dT*kG*kT*kG) [compound 1075860]
[9]
  YAP1 (% UTC): 73 % UTC

## 1074574 (DNA k[5mC]*kA*kT*dT*dA*dT*dG*dA*dA*d[5mC]*d[5mC]*dT*dA*k[5mC]*kT*k[5mC]) [compound 1074574]
[2]
  YAP1 (% UTC): 17 % UTC

## 958513 (kG*k[5mC]*kG*d[5mC]*dT*dA*d[5mC]*d[5mC]*dA*dT*dT*dT*dT*kA*kA*kA; antisense) [Compound 958513]
[1]
  YAP1 (% UTC): 104 % UTC

## 1074901 (antisense kT*kA*kT*dT*dA*dA*d[5mC]*dT*dT*dT*dT*dG*dG*kG*k[5mC]*kA) [compound 1074901]
[12]
  YAP1 (% UTC): 61 % UTC
